For this experiment, the system named is cell viability. The experiment is described as follows: Cellular proliferation assay (percent CTG activity, FIG. 23C). Particulars: agent alone, cell line not stated. It is filed as cell-based.

As for `COCOC[C@H]1C[C@H]2COc3c(Sc4cnc(N5CCC6(CC5)CO[C@@H](C)[C@H]6N)c(CO)n4)ccnc3N2C1` [compound of Formula I], the “percent CTG activity (cell viability), single agent” value is given as “minimal effect on cell viability”.

These data come from patent US20240058352A1, “COMBINATION THERAPIES FOR THE TREATMENT OF CANCER” (Erasca, Inc., priority 2020, published 2024).
